In this experiment the target is T1, human HSL (Homo sapiens, UniProt Q05469).
T1 construct: generate a full length human HSL ORF with a 3′-His6 tag; made in house; host or cells: High 5 insect cells (baculovirus, pFast-BAC)
T1 sequence (Q05469 1-1076): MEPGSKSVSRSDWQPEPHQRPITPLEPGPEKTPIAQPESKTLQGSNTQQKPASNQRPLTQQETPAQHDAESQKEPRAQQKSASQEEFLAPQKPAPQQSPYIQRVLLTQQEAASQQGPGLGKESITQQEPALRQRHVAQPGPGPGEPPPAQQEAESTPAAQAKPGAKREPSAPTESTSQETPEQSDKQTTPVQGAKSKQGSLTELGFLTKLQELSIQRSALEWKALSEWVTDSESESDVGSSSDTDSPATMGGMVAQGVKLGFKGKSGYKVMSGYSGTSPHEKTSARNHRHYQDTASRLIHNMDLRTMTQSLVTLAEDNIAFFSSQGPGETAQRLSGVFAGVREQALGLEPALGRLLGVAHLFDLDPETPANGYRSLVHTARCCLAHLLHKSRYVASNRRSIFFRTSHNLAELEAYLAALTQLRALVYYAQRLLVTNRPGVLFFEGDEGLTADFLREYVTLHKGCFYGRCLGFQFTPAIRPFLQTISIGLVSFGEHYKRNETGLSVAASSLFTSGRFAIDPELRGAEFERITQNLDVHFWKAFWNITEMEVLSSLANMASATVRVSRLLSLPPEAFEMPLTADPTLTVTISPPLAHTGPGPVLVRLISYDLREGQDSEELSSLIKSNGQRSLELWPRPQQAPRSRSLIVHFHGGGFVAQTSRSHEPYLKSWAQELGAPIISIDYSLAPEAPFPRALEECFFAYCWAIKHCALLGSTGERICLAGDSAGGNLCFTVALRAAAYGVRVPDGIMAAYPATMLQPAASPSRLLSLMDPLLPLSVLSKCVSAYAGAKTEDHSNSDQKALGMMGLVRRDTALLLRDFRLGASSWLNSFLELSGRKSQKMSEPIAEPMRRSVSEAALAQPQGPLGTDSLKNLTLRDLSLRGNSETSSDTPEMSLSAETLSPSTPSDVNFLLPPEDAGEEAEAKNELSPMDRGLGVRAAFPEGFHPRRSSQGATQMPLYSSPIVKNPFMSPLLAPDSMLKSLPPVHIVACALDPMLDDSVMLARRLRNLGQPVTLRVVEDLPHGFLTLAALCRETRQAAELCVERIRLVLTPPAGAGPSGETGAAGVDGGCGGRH
Briefly: Human Hormone-Sensitive Lipase (HSL) enzyme inhibition assay (colorimetric, DMPT substrate). The class given is biochemical. Particulars: human full length HSL-His6, 2,3-dimercapto-1-propanol tributyrate substrate, 37° C. 20 minutes, absorbance at 405 nm; read-out: HSL hum IC50. How it is done: Production of Human Full Length Hormone Sensitive Lipase-His^6:
1) Cloning: cDNA was prepared from commercial human brain polyA+ RNA and used as a template in overlapping PCR to generate a full length human HSL ORF with a 3′-His6 tag. This full length insert was cloned into the pFast-BAC vector and the DNA-sequence of several single clones was verified. DNA from a correct full length clone with the 3′His6 tag was used to transform the E. coli strain DH10BAC. Resulting bacmid DNA was used to generate a titered baculovirus stock for protein generation. The sequence of the encoded HSL conforms to Swissprot entry Q05469, with the additional C-terminal His6-tag. 2) Protein purification: Culture: 5.5 L, High 5 cells expressing human full length HSL-His^6, 48 hr., containing 25 μM E-64. Cell count: […], 90% viable. Cells were thawed. On ice, cells were suspended in Base Buffer containing 10% glycerol, 25 mM Tris-Cl, 300 mM NaCl, 10 mM imidazole, 10 mM 2-mercaptoethanol, 2 μg pepstatin/ml, 2 μg leupeptin/ml, 2 μg antipain/ml, pH 8.0 at 4° C. in a final volume of 475 ml with 3.75×10^7 cells/ml. […] was done at 3×30 sec., Lubrol PX was added to 0.2% final concentration followed by stirring for 15 min. at 4° C. and centrifugation at 25 k×g, 60 min., 4° C. Soluble proteins were mixed with 60 ml of pre-washed and equilibrated Ni-NTA Agarose (Qiagen 30210) followed by tumbling end-over-end, 45 min., 4° C., centrifugation 1000 rpm 5 min and letting resin settle 5 min. Supernatant was removed, the resin washed in the centrifuge vessel using 5 volumes of Base Buffer containing 0.2% Lubrol PX. Centrifugation was done again, then the supernatant discarded. The resin was poured onto a 0.8 μm membrane in a disposable filter unit (Nalge 450-0080), and washed with 5 volumes of Base Buffer containing 0.2% Lubrol PX. It was then washed with 30 volumes of Base Buffer containing 60 mM imidazole pH 7.5 at 4° C. The protein was eluated with 5 volumes of 25 mM Tris-Cl, 300 mM NaCl, 200 mM imidazole, 10 mM 2-mercaptoethanol, pH 7.5 at 4° C. by tumbling resin with buffer end-over-end, 30 min., 4° C. The resin was captured on a 0.2 μm membrane disposable filter unit (Millipore SCGP U02 RE) and the eluate collected in the reservoir. The eluate was concentrated using a 30 k MWCO centrifugal filter device (Sartorius Vivascience Vivacell 100, VC1022), to 20 ml. It was then dialyzed overnight at 4° C., two times against 2 L of 10% glycerol, 25 mM Tris-Cl, 300 mM NaCl, 0.2 mM EDTA, 0.2 mM DTT, pH 7.5 at 4° C. The protein was filtered using a 0.22 μm disposable filter unit (Millipore SCGP00525). The protein concentration was calculated from absorbance at 280 nm, using 280=0.67 cm-1 mg-1. Yield was 235 mg, total. The protein was stored at −80° C. Human Hormone-Sensitive Lipase (HSL) Enzyme Inhibition Assay:
HSL enzyme activity was measured by a colorimetric assay using 2,3-dimercapto-1-propanol tributyrate (Aldrich, St. Louis, Mo.) as a substrate. Typically, 1.5 mM 2,3-dimercapto-1-propanol tributyrate (DMPT) in 100 mM MOPS, pH 7.2, 0.2 mg/ml fatty acid-free BSA was prepared by sonication at 4° C. to homogenous suspension. Test compounds (2 mM stock in DMSO) were diluted 3 fold in series in DMSO. Compound solutions were diluted 24 fold in 1.5 mM DMPT containing solution and 18 ul per well was added to 384-well microplates (Corning Costar). Twelve microliters per well of human HSL (15 ug/ml) was added and the reaction mixture was incubated at 37° C. for 20 minutes. Six microliters of 12 mM dithio-bis-(2-nitrobenzoic acid) (DTNB) in DMSO plus 1.2% SDS and 0.6% Triton X-100 were added and the mixture was incubated at room temperature for 15 minutes. Product production was monitored by reading absorbance at 405 nm on an Envision Reader (PerkinElmer Life and Analytical Sciences, Shelton, Conn.).

`CC(Oc1ccc(N2CCC3(CCC(O)CC3)C2=O)cc1)C(F)(F)F` (mixture of isomers) [Example 162, 8-Hydroxy-2-[4-(2,2,2-trifluoro-1-methyl-ethoxy)-phenyl]-2-aza-spiro[4.5]decan-1-one]: the IC50 (usually the concentration needed to halve the response being measured) stood at 220 nM.
The value for `CCC[C@]1(O)CC[C@]2(CCN(c3ccc(C(O)C(F)(F)F)cc3)C2=O)CC1` (mixture of isomers) [Example 133, (5α,8α)-8-Hydroxy-8-propyl-2-(4-(2,2,2-trifluoro-1-hydroxyethyl)phenyl)-2-aza-spiro[4.5]decan-1-one] was 30 nM; that for `CC(C)(C)c1ccc(N2CCC3(CCC(C(O)C(F)(F)F)CC3)C2=O)cc1` (single isomer, unassigned) [Example 360, (5α,8β)-2-(4-tert-Butyl-phenyl)-8-(2,2,2-trifluoro-1-hydroxy-ethyl)-2-aza-spiro[4.5]decan-1-one] was 10 nM.
Next, `CC(C)(C)c1ccc(N2CCC3(CCC(C(O)C(F)(F)F)CC3)C2=O)cc1` (single isomer, unassigned) [Example 361, (5α,8α)-2-(4-tert-Butyl-phenyl)-8-(2,2,2-trifluoro-1-hydroxy-ethyl)-2-aza-spiro[4.5]decan-1-one]: 110 nM; `O=C1N(c2ccc(OC(F)(F)F)cc2)CC[C@]12CC[C@@H](O)CC2` [Example 1, (5α,8β)-8-Hydroxy-2-(4-trifluoromethoxy-phenyl)-2-aza-spiro[4.5]decan-1-one]: 470 nM.
The value for `O=C1N(c2ccc(OC(F)(F)F)cc2)CC[C@]12CC[C@H](O)CC2` [Example 2, (5α,8α)-8-Hydroxy-2-(4-trifluoromethoxy-phenyl)-2-aza-spiro[4.5]decan-1-one] was 150 nM; that for `COc1ccc(N2CC[C@]3(CC[C@@H](OCc4ccccc4)CC3)C2=O)cc1` [Example 3, (5α,8β)-8-Benzyloxy-2-(4-methoxy-phenyl)-2-aza-spiro[4.5]decan-1-one] was 610 nM; that for `CCc1ccc(N2CC[C@]3(CC[C@@H](OCc4ccccc4)CC3)C2=O)cc1` [Example 4, (5α,8β)-8-Benzyloxy-2-(4-ethyl-phenyl)-2-aza-spiro[4.5]decan-1-one] was 240 nM.
Turning to `CCc1ccc(N2CC[C@]3(CC[C@@H](O)CC3)C2=O)cc1` [Example 5, (5α,8β)-2-(4-Ethyl-phenyl)-8-hydroxy-2-aza-spiro[4.5]decan-1-one], the IC50 worked out at 2370 nM.
On to `CCCNC(=O)O[C@H]1CC[C@@]2(CCN(c3ccc(CC)cc3)C2=O)CC1` [Example 6, Propyl-carbamic acid [(5α,8β)-2-(4-ethyl-phenyl)-1-oxo-2-aza-spiro[4.5]dec-8-yl]ester], for which the IC50 came out at 100 nM.
Next, `CCc1ccc(N2CC[C@]3(CC[C@@H](OC(=O)NCc4cccc(F)c4)CC3)C2=O)cc1` [Example 7, (3-Fluoro-benzyl)-carbamic acid [(5α,8β)-2-(4-ethyl-phenyl)-1-oxo-2-aza-spiro[4.5]dec-8-yl]ester]: 70 nM; `CCc1ccc(N2CC[C@]3(CC[C@@H](OC(=O)Nc4ccccc4)CC3)C2=O)cc1` [Example 8, Phenyl-carbamic acid [(5α,8β)-2-(4-ethyl-phenyl)-1-oxo-2-aza-spiro[4.5]dec-8-yl]ester]: 270 nM; `O=C1N(c2ccc(OC(F)(F)F)cc2)CC[C@]12CC[C@@H](OCc1ccccc1)CC2` [Example 9, (5α,8β)-8-Benzyloxy-2-(4-trifluoromethoxy-phenyl)-2-aza-spiro[4.5]decan-1-one]: 190 nM.
For `O=C(NCc1cccc(F)c1)O[C@H]1CC[C@@]2(CCN(c3ccc(OC(F)(F)F)cc3)C2=O)CC1` [Example 10, (3-Fluoro-benzyl)-carbamic acid [(5α,8β)-1-oxo-2-(4-trifluoromethoxy-phenyl)-2-aza-spiro[4.5]dec-8-yl]ester], the IC50 was 60 nM.
The value for `CCCNC(=O)O[C@H]1CC[C@@]2(CCN(c3ccc(OC(F)(F)F)cc3)C2=O)CC1` [Example 11, Propyl-carbamic acid [(5α,8β)-1-oxo-2-(4-trifluoromethoxy-phenyl)-2-aza-spiro[4.5]dec-8-yl]ester] was 40 nM; that for `COc1cccc(CNC(=O)O[C@H]2CC[C@@]3(CCN(c4ccc(OC(F)(F)F)cc4)C3=O)CC2)c1` [Example 12, (3-Methoxy-benzyl)-carbamic acid [(5α,8β)-1-oxo-2-(4-trifluoromethoxy-phenyl)-2-aza-spiro[4.5]dec-8-yl]ester] was 60 nM.
The value for `COc1ccc(CNC(=O)O[C@H]2CC[C@@]3(CCN(c4ccc(OC(F)(F)F)cc4)C3=O)CC2)cc1` [Example 13, (4-Methoxy-benzyl)-carbamic acid [(5α,8β)-1-oxo-2-(4-trifluoromethoxy-phenyl)-2-aza-spiro[4.5]dec-8-yl]ester] was 90 nM; that for `O=C(NCc1ccccc1F)O[C@H]1CC[C@@]2(CCN(c3ccc(OC(F)(F)F)cc3)C2=O)CC1` [Example 14, (2-Fluoro-benzyl)-carbamic acid [(5α,8β)-1-oxo-2-(4-trifluoromethoxy-phenyl)-2-aza-spiro[4.5]dec-8-yl]ester] was 20 nM; that for `O=C(NCc1ccc(F)cc1)O[C@H]1CC[C@@]2(CCN(c3ccc(OC(F)(F)F)cc3)C2=O)CC1` [Example 15, (4-Fluoro-benzyl)-carbamic acid [(5α,8β)-1-oxo-2-(4-trifluoromethoxy-phenyl)-2-aza-spiro[4.5]dec-8-yl]ester] was 70 nM.

Values taken from US8440710B2, “HSL inhibitors useful in the treatment of diabetes” (Hoffmann-La Roche Inc., priority 2009, dated 2013).
